From PubChem BioAssay (NCI)
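A five-concentration, 48-hour dose response in 96-well plates underlies each endpoint, interpolated linearly between surrounding concentrations. Abbreviation: GI50, concentration required for 50% inhibition of growth. TGI: concentration producing complete growth inhibition.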

Tests used:
Assay in all cases: growth of human tumour cells (NCI), 48 h
IGROV1 ovarian = tested on: IGROV1 ovarian
UACC-257 melanoma = tested on: UACC-257 melanoma
SN12C renal = tested on: SN12C renal
NCI-H23 lung = tested on: NCI-H23 lung
OVCAR-5 ovarian = tested on: OVCAR-5 ovarian
NCI-H522 lung = tested on: NCI-H522 lung
SK-OV-3 ovarian = tested on: SK-OV-3 ovarian
SNB-75 CNS = tested on: SNB-75 CNS
M14 melanoma = tested on: M14 melanoma
OVCAR-8 ovarian = tested on: OVCAR-8 ovarian

Structure (SMILES)	GI50 (IGROV1 ovarian)	TGI (IGROV1 ovarian)	GI50 (UACC-257 melanoma)	TGI (UACC-257 melanoma)	GI50 (SN12C renal)	TGI (SN12C renal)	GI50 (NCI-H23 lung)	TGI (NCI-H23 lung)	GI50 (OVCAR-5 ovarian)	TGI (OVCAR-5 ovarian)	GI50 (NCI-H522 lung)	TGI (NCI-H522 lung)	GI50 (SK-OV-3 ovarian)	TGI (SK-OV-3 ovarian)	GI50 (SNB-75 CNS)	TGI (SNB-75 CNS)	GI50 (M14 melanoma)	TGI (M14 melanoma)	GI50 (OVCAR-8 ovarian)	TGI (OVCAR-8 ovarian)
Cc1ccc(-n2c3c(c4c(CN)c(O)ccc42)CCc2ccccc2C3=O)cc1	8.18 µM	22.8 µM	18 µM	34.1 µM	14.2 µM	28.2 µM	14.1 µM	28.5 µM	15.8 µM	30.4 µM	9.3 µM	23.6 µM	18.1 µM	34.4 µM	18.9 µM	39.3 µM	5.5 µM	18.9 µM	19.7 µM	38 µM
C/C=C(\C)C(=O)N1c2ccccc2CC1c1c(C)[nH]c2ccccc12 (stereo not given)		> 100 µM		> 100 µM		> 100 µM		> 100 µM		> 100 µM		> 100 µM		> 100 µM		> 100 µM		> 100 µM		> 100 µM
O=S(=O)(NCCNc1cc(-c2cn(-c3ccccc3)nc2-c2cccc(O)c2)ccn1)c1ccc(Br)cc1	3.33 µM	15.5 µM	2.8 µM	7.07 µM	2.14 µM	4.78 µM	2.7 µM	11.4 µM	2.25 µM	5.97 µM	2.02 µM	4.69 µM	3.59 µM	14.5 µM	2.03 µM	6.94 µM	2.02 µM	5.04 µM	3.47 µM	12.6 µM
C#CCN(Cc1nc2cc(C(F)(F)F)ccc2nc1-c1ccccc1)c1ccc(F)cc1	23.1 µM	> 100 µM	18.7 µM	63 µM	30.8 µM	96 µM	> 100 µM	> 100 µM	75.6 µM	> 100 µM	22.4 µM	> 100 µM	33.4 µM	> 100 µM	90.3 µM	> 100 µM	56.4 µM	> 100 µM	29.4 µM	> 100 µM
COc1cc2c(cc1OC)-c1ncc3cc(OC)c(OC)cc3c1C2	20.2 µM	> 50 µM	> 50 µM	> 50 µM	> 50 µM	> 50 µM	> 50 µM	> 50 µM	> 50 µM	> 50 µM	24.5 µM	> 50 µM	> 50 µM	> 50 µM	> 50 µM	> 50 µM	> 50 µM	> 50 µM	> 50 µM	> 50 µM
CCOC(=O)C(=O)C(/C(=N/N(C)C)C(=O)Nc1ccc(C)cc1C)c1nc2ccccc2[nH]c1=O (stereo not given)		> 100 µM		> 100 µM		> 100 µM		> 100 µM		> 100 µM		> 100 µM		> 100 µM		> 100 µM		> 100 µM		> 100 µM
N.N.NCCCCCN.O=C([O-])CC(=O)[O-].O=C([O-])CC(=O)[O-].[Pt+4].[Pt+4]	> 100 µM	> 100 µM	> 100 µM	> 100 µM	45.6 µM	> 100 µM	98.3 µM	> 100 µM	> 100 µM	> 100 µM	> 100 µM	> 100 µM	> 100 µM	> 100 µM	> 100 µM	> 100 µM	> 100 µM	> 100 µM	> 100 µM	> 100 µM
COc1c(Cl)[c]([Hg][O]C(C)=O)c(NCC(C)=O)c(OC)[c]1[Hg][O]C(C)=O	15.6 µM	31.6 µM	15.4 µM	29.9 µM	20.8 µM	36.3 µM	11.2 µM	28.8 µM	38.7 µM	90.9 µM	1.37 µM	4 µM	24.5 µM	45.6 µM	13.9 µM	32.5 µM	14.7 µM	28.6 µM	13.6 µM	32.4 µM
OCCCCCNc1ccnc2cc(Cl)ccc12		> 100 µM		> 100 µM		> 100 µM		> 100 µM		> 100 µM		> 100 µM		> 100 µM		> 100 µM		> 100 µM		> 100 µM
COc1ccc(-c2cc(-c3ccc(Cl)cc3)nc(SCCCCCCC(=O)NO)n2)cc1	1.41 µM	12.5 µM	1.88 µM	> 50 µM	1.74 µM	8.85 µM	1.56 µM	7.81 µM	1.66 µM	12.5 µM	1.2 µM	7.86 µM	1.62 µM	8.54 µM	1.36 µM	23.8 µM	1.26 µM	4.74 µM	1.53 µM	> 50 µM
O=C(Nc1ccc(N2CCNCC2)cn1)c1[nH]ncc1Nc1ncnc2sccc12	4.27 µM	24.6 µM	16.4 µM	36.7 µM	4.27 µM	18.8 µM	2.02 µM	4.75 µM	2.08 µM	5.19 µM	1.87 µM	4.36 µM	10.6 µM	25.7 µM	4.89 µM	21.2 µM	1.86 µM	3.65 µM	1.96 µM	4.02 µM
CCN(CC)CCOc1ccc(Cc2ccccc2)cc1	24 µM	74.6 µM	22.5 µM	63 µM	48.8 µM	> 100 µM	33.4 µM	> 100 µM	28.5 µM	> 100 µM	18.4 µM	> 100 µM	44 µM	> 100 µM	19 µM	94.9 µM	17.3 µM	34.6 µM	60.6 µM	> 100 µM
CC(CCC(=O)O)c1ccc(Br)cc1 (stereo not given)		> 100 µM		> 100 µM		> 100 µM		> 100 µM		> 100 µM		> 100 µM		> 100 µM		> 100 µM		> 100 µM		> 100 µM
CC(C)c1cc(C(=O)[O-])c(O)c(C(C)C)c1.CC(C)c1cc(C(=O)[O-])c(O)c(C(C)C)c1.CC(C)c1cc(C(=O)[O-])c(O)c(C(C)C)c1.CC(C)c1cc(C(=O)[O-])c(O)c(C(C)C)c1.CC(C)c1cc(C(=O)[O-])c(O)c(C(C)C)c1.CC(C)c1cc(C(=O)[O-])c(O)c(C(C)C)c1.[Cu+2].[Mn+2].[Mn+2]	15.2 µM	38.4 µM	29.6 µM	67.1 µM	20.9 µM	49 µM	20.1 µM	45.6 µM	28.2 µM	49.3 µM	10.9 µM	25.1 µM	2.61 µM	16.1 µM	24.8 µM	68.7 µM	14.8 µM	30.4 µM	29.3 µM	81 µM
COC(=O)CCCNC(=O)C(=O)c1c(O)c(O)c(C(C)C)c2cc(C)c(-c3c(C)cc4c(C(C)C)c(O)c(O)c(C(=O)C(=O)NCCCC(=O)OC)c4c3O)c(O)c12	0.499 µM	13 µM	1.77 µM	6.19 µM	0.844 µM	6.85 µM	0.363 µM	6.03 µM	0.781 µM	> 32.5 µM	0.379 µM	1.9 µM	0.855 µM	2.57 µM	1.43 µM	19.1 µM	0.753 µM	2.31 µM	0.604 µM	2.5 µM
